Data taken from patent publication US12280066B2, “Methods and compositions related to glucocorticoid receptor antagonists and breast cancer” (The University of Chicago, priority 2010, dated 2025).

Experiments:
[1] = test system: MDA-MB-231 human breast cancer cells; assay: MDA-MB-231 xenograft tumor volume in SCID mice; conditions: mifepristone 15 mg/kg i.p. two hours prior to paclitaxel 10 mg/kg, five successive days, compared to paclitaxel alone, P=0.013
[2] = test system: Parental MCF-7 (ER+/PR+/GR+) cells; assay: Annexin V FACS apoptosis assay, parental MCF-7 cells; type: cell-based; conditions: mifepristone/paclitaxel 10^-6 M compared to paclitaxel alone, 20 hours
Protocol: (§1) Apoptosis was measured using FITC conjugated-anti-Annexin V antibody labeling followed FACS analysis to determine the percentage of the total cell population undergoing apoptosis after 20 hours of treatment.

[3] = test system: T-R MCF-7 (ER+/PR+/GR+) cells; assay: Annexin V FACS apoptosis assay, T-R MCF-7 cells; type: cell-based; conditions: mifepristone/paclitaxel 10^-6 M compared to paclitaxel alone, 20 hours, P=0.028
Protocol: as §1

[4] = test system: glucocorticoid receptor (GR); conditions: literature (Moran et al., 2000; Mikosz et al., 2001); cited from earlier work

CC#C[C@]1(O)CC[C@H]2[C@@H]3CCC4=CC(=O)CCC4=C3[C@@H](c3ccc(N(C)C)cc3)C[C@@]21C [mifepristone]
tumor volume over time [1]: increases MDA-MB-231 tumor susceptibility to paclitaxel
tumor volume over time ([1]; listed as Mifepristone): significantly decreased tumor volume over time
apoptosis (percentage of total cell population undergoing apoptosis) [2]: No difference
apoptosis (percentage of total cell population undergoing apoptosis) ([2]; listed as Mifepristone): not parental MCF-7
apoptosis (percentage of total cell population undergoing apoptosis) [3]: Significantly more apoptosis
apoptosis (percentage of total cell population undergoing apoptosis) ([3]; listed as Mifepristone): increases
reversal of GR-initiated cell survival signaling [4]: reverses cell survival signaling pathways initiated by the GR
